This note sets out measurements from US11090304B2 (Amgen Inc., priority 2018, dated 2021).

Assay [1] deals with GDP-bound KRAS protein (aa 1-169), containing both G12C and C118A amino acid substitutions (Homo sapiens, UniProt P01116, C118A/G12C). As to the kind of experiment: Coupled nucleotide exchange assay (SOS-mediated, AlphaScreen). Format: biochemical.
For assay [2], the system named is Phosphorylation of ERK1/2 in MIA PaCa-2 cells. Kind of assay: Phospho-ERK1/2 MSD assay in MIA PaCa-2 cells. Format: cell-based. As for the experimental part:
For compounds in Table 89, the following assay conditions were employed:
Phospho-ERK1/2 MSD Assay:
Sixteen hours prior to compound treatment, MIA PaCa-2 or A549 cells were seeded in 96-well cell culture plates at a density of 25,000 cells/well and incubated at 37° C., 5% CO2. A compound dose-response titration was diluted in growth media, added to appropriate wells of a cell culture plate, and then incubated at 37° C., 5% CO2 for 2 or 4 hours (see Table 15). Following compound treatment, cells were stimulated with 10 ng/mL EGF (Roche 11376454001) for 10 min, washed with ice-cold Dulbecco's phosphate-buffered saline, no Ca^2+ or Mg^2+ (ThermoFisher Scientific 14190144), and then lysed in RIPA buffer (50 mM Tris-HCl pH 7.5, 1% Igepal, 0.5% sodium deoxycholate, 150 mM NaCl, and 0.5% sodium dodecyl sulfate) containing protease inhibitors (Roche 4693132001) and phosphatase inhibitors (Roche 4906837001). Phosphorylation of ERK1/2 in compound-treated lysates was assayed using Phospho-ERK1/2 Whole Cell Lysate kits (Meso Scale Discovery K151DWD) according to the manufacturer's protocol. Assay plates were read on a Meso Scale Discovery Sector Imager 6000, and data were analyzed using a 4-parameter logistic model to calculate IC50 values.

[3] abbreviates: read-out: p-ERK IC50 (2 h; MIA PaCa-2), 2 h compound treatment.
[4] abbreviates: Homo sapiens, MIA PaCa-2, 2 h, read-out: p-ERK IC50 (2 h; MIA PaCa-2), 2 h compound treatment.

Like-named read-outs stand apart in the source and are kept apart here.

GDP-bound KRAS protein (aa 1-169), containing both G12C and C118A amino acid substitutions, sequence (P01116 1-169 isoform P01116-2 G12C/C118A): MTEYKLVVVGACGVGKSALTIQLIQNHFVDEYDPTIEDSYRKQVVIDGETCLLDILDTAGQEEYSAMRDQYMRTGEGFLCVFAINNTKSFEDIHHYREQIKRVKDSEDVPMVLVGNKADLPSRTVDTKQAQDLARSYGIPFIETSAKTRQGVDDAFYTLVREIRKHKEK

As for `C=CC(=O)N1CCN(c2nc(=O)n(-c3ccccc3C(C)C)c3nc(-c4ccc(F)cc4F)c(Cl)cc23)[C@@H](C)C1` (single isomer, unassigned) [Example 54-85-2], the “Coupled exchange IC50 (5 min)” value in assay [1] (5 min compound pre-incubation) is 0.078 | nda μM. For the same compound, the IC50 (commonly the concentration that inhibits the measured activity by half) in assay [2] (setting [3]) was found to be 79 nM.

As for `C=CC(=O)N1CCN(c2nc(=O)n(-c3ccccc3CC)c3nc(-c4c(O)cccc4F)c(Cl)cc23)[C@@H](C)C1` [Example 54-34, 6-chloro-1-(2-ethylphenyl)-7-(2-fluoro-6-hydroxyphenyl)-4-((2S)-2-methyl-4-(2-propenoyl)-1-piperazinyl) pyrido[2,3-d]pyrimidin-2(1H)-one], the “Coupled exchange IC50 (5 min)” value in assay [1] (5 min compound pre-incubation) is 0.325 | nda μM. Further, the IC50 in assay [2] (setting [4]) is 97 nM.

With `C=CC(=O)N1C[C@@H](C)N(c2nc(=O)n(-c3c(C)ccnc3C(C)C)c3nc(-c4ccccc4F)c(Cl)cc23)[C@@H](C)C1` (single isomer, unassigned) [Example 78-7, (M)-6-chloro-4-(cis-2,6-dimethyl-4-(2-propenoyl)-1-piperazinyl)-7-(2-fluorophenyl)-1-(4-methyl-2-(2-propanyl)-3-pyridinyl)pyrido[2,3-d]pyrimidin-2(1H)-one], the “Coupled exchange IC50 (5 min)” value in assay [1] (5 min compound pre-incubation) is 0.034 | nda μM. Also, the IC50 in assay [2] (setting [4]) is 23 nM.

On to `C=CC(=O)N1CCN(c2nc(=O)n(-c3scnc3C(C)C)c3nc(-c4ccccc4F)c(F)cc23)[C@@H](C)C1` [Example 57-12, 6-fluoro-7-(2-fluorophenyl)-4-((2S)-2-methyl-4-(2-propenoyl)-1-piperazinyl)-1-(4-(2-propanyl)-1,3-thiazol-5-yl)pyrido[2,3-d]pyrimidin-2(1H)-one], for which, in assay [1] (5 min compound pre-incubation), the “Coupled exchange IC50 (5 min)” value was 0.472 | nda μM. In addition, the IC50 in assay [2] (setting [4]) was 539 nM.

In the case of `C=CC(=O)N1CCN(c2nc(=O)n(-c3ncc(C#N)cc3CC)c3nc(-c4c(O)cccc4F)c(Cl)cc23)[C@@H](C)C1` [Example 54-53, 6-(6-chloro~7-(2-fluoro-6-hydroxyphenyl)-4-((2S)-2-methyl-4-(2-propenoyl)-1-piperazinyl)-2-oxopyrido[2,3-d]pyrimidin-1(2H)-yl)-5-ethyl-3-pyridine-carbonitrile], the “Coupled exchange IC50 (5 min)” value in assay [1] (5 min compound pre-incubation) is 0.193 | nda μM. In addition, the IC50 in assay [2] (setting [4]) was determined as 593 nM.

Regarding `C=CC(=O)N1CCN(c2nc(=O)n(-c3c(C(C)C)ncnc3N(C)C)c3nc(-c4ccccc4F)c(Cl)cc23)[C@@H](C)C1` [Example 140, 6-Chloro-1-(4-(dimethylamino)-6-(2-propanyl)-5-pyrimidinyl)-7-(2-fluorophenyl)-4-((2S)-2-methyl-4-(2-propenoyl)-1-piperazinyl)pyrido[2,3-d]pyrimidin-2(1H)-one], in assay [1] (5 min compound pre-incubation), the “Coupled exchange IC50 (5 min)” value is 0.09 | nda μM. Besides, the IC50 in assay [2] (setting [4]) stood at 96 nM.

`C=CC(=O)N1CCN(c2nc(=O)n(-c3ccccc3C3(C)CC3)c3nc(-c4c(O)cccc4F)c(Cl)cc23)[C@@H](C)C1` [Example 54-97, 6-chloro-7-(2-fluoro-6-hydroxyphenyl)-1-(2-(1-methylcyclopropyl)phenyl)-4-((2S)-2-methyl-4-(2-propenoyl)-1-piperazinyl) pyrido[2,3-d]pyrimidin-2(1H)-one]: in assay [1] (5 min compound pre-incubation), the “Coupled exchange IC50 (5 min)” value was 0.128 | nda μM. Also, in assay [2] (setting [4]), the IC50 was found to be 256 nM.

As to `C=CC(=O)N1CCN(c2nc(=O)n(-c3c(C)ncnc3C(C)C)c3nc(-c4cc(C)ccc4F)c(Cl)cc23)[C@@H](C)C1` (single isomer, unassigned) [Example 55-40-2], in assay [1] (5 min compound pre-incubation), the “Coupled exchange IC50 (5 min)” value is on record as 0.078 | nda μM. The concentration for half-maximal inhibition (IC50) in assay [2] (setting [4]) worked out at 81 nM.

Take `C=CC(=O)N1CCN(c2nc(=O)n(-c3ccccc3C3(C)CC3)c3nc(-c4ccccc4F)c(Cl)cc23)[C@@H](C)C1` (single isomer, unassigned) [Example 54-99-2]: the “Coupled exchange IC50 (5 min)” value in assay [1] (5 min compound pre-incubation) is listed as 0.094 | nda μM. Further, in assay [2] (setting [4]), the IC50 amounted to 174 nM.

As to `C=CC(=O)N1CCN(c2nc(=O)n(-c3ccccc3C3(C)CC3)c3nc(-c4ccccc4F)c(Cl)cc23)[C@@H](C)C1` [Example 54-99, 6-chloro-7-(2-fluorophenyl)-1-(2-(1-methylcyclopropyl)phenyl)-4-((2S)-2-methyl-4-(2-propenoyl)-1-piperazinyl) pyrido[2,3-d]pyrimidin-2(1H)-one], the “Coupled exchange IC50 (5 min)” value in assay [1] (5 min compound pre-incubation) was 0.153 | nda μM. In addition, the IC50 in assay [2] (setting [4]) was 294 nM.

For `C=CC(=O)N1CCN(c2nc(=O)n(-c3ccccc3C(C)C)c3c(C)c(-c4c(O)cccc4F)c(Cl)cc23)[C@@H](C)C1` (single isomer, unassigned) [Example 90-2], the “Coupled exchange IC50 (5 min)” value in assay [1] (5 min compound pre-incubation) is 0.151 µM. Moreover, the “Coupled exchange IC50 (2 h)” value in assay [1] (2 h compound pre-incubation) is 175 nM. Further, the IC50 in assay [2] (read-out: p-ERK IC50 (4 h; MIA PaCa-2), 4 h compound treatment) came out at 111 nM.

Regarding `C=CC(=O)N1CCN(c2nc(=O)n(-c3c(C(C)C)n[nH]c3C(C)C)c3nc(-c4ccccc4F)c(Cl)cc23)[C@@H](C)C1` [Example 54-72, 6-chloro-1-(3,5-di(2-propanyl)-1H-pyrazol-4-yl)-7-(2-fluorophenyl)-4-((2S)-2-methyl-4-(2-propenoyl)-1-piperazinyl) pyrido[2,3-d]pyrimidin-2(1H)-one], the “Coupled exchange IC50 (5 min)” value in assay [1] (5 min compound pre-incubation) was 0.108 | nda μM. Further, in assay [2] (setting [4]), the IC50 is 183 nM.

In the case of `C=CC(=O)N1CCN(c2nc(=O)n(-c3ncncc3C(C)C)c3nc(-c4ccccc4F)c(Cl)cc23)[C@@H](C)C1` [Example 99, 6-Chloro-7-(2-fluorophenyl)-4-((2S)-2-methyl-4-(2-propenoyl)-1-piperazinyl)-1-(5-(2-propanyl)-4-pyrimidinyl)pyrido[2,3-d]pyrimidin-(1H)-one], the IC50 in assay [1] (read-out: Coupled exchange IC50 (5 min), 5 min compound pre-incubation) amounted to 237 nM; in assay [2] (setting [3]), 72 nM.

With `C=CC(=O)N1CCN(c2nc(=O)n(-c3c(C)ccnc3C(C)C)c3nc(-c4ccc(F)cc4F)c(F)cc23)[C@@H](C)C1` (single isomer, unassigned) [Example 58-10-1], the “Coupled exchange IC50 (5 min)” value in assay [1] (5 min compound pre-incubation) is recorded as 0.264 | nda μM. The IC50 in assay [2] (setting [4]) stood at 257 nM.

Turning to `C=CC(=O)N1CCN(c2nc(=O)n(-c3c(C)cccc3C(C)C)c3nc(-c4c(O)cccc4Cl)c(F)cc23)[C@@H](C)C1` (single isomer, unassigned) [Example 68-1-1], in assay [1] (5 min compound pre-incubation), the “Coupled exchange IC50 (5 min)” value was 0.084 | nda μM. Besides, the IC50 in assay [2] (setting [3]) turned out to be 128 nM.

Consider `C=CC(=O)N1CCN(c2nc(=O)n(-c3nccnc3C(C)C)c3nc(-c4c(O)cccc4F)c(Cl)cc23)[C@@H](C)C1` [Example 54-21, 6-chloro-7-(2-fluoro-6-hydroxyphenyl)-4-((2S)-2-methyl-4-(2-propenoyl)-1-piperazinyl)-1-(3-(2-propanyl)-2-pyrazinyl) pyrido[2,3-d]pyrimidin-2(1H)-one], for which the “Coupled exchange IC50 (5 min)” value in assay [1] (5 min compound pre-incubation) is recorded as 1.67 | nda μM. For the same compound, the IC50 in assay [2] (setting [4]) came out at 2480 nM.

On to `C=CC(=O)N1CCN(c2nc(=O)n(-c3ncccc3C(=C)C)c3nc(-c4c(O)cccc4F)c(Cl)cc23)[C@@H](C)C1` [Example 55-24, 6-chloro-7-(2-fluoro-6-hydroxyphenyl)-4-((2S)-2-methyl-4-(2-propenoyl)-1-piperazinyl)-1-(3-(1-propen-2-yl)-2-pyridinyl)pyrido[2,3-d]pyrimidin-2(1H)-one], for which, in assay [1] (5 min compound pre-incubation), the “Coupled exchange IC50 (5 min)” value is recorded as 0.113 | nda μM. The IC50 in assay [2] (setting [4]) came out at 74 nM.

`C=CC(=O)N1CCN(c2nc(=O)n(-c3nccnc3C(C)C)c3nc(-c4c(O)cccc4F)c(F)cc23)[C@@H](C)C1` [Example 57-3, 6-fluoro-7-(2-fluoro-6-hydroxyphenyl)-4-((2S)-2-methyl-4-(2-propenoyl)-piperazinyl)-1-(3-(2-propanyl)-2-pyrazinyl)pyrido[2,3-d]pyrimidin-2(1H)-one]: in assay [1] (5 min compound pre-incubation), the “Coupled exchange IC50 (5 min)” value is listed as 0.664 | nda μM. Besides, the IC50 in assay [2] (setting [4]) is 241 nM.

As to `C=CC(=O)N1CCN(c2nc(=O)n(-c3ccccc3C3(C)CC3)c3nc(-c4c(O)cccc4F)c(Cl)cc23)[C@@H](C)C1` (single isomer, unassigned) [Example 54-97-2], in assay [1] (5 min compound pre-incubation), the “Coupled exchange IC50 (5 min)” value was 0.044 | nda μM. In addition, the IC50 in assay [2] (setting [3]) is 141 nM.

For `C=CC(=O)N1CCN(c2nc(=O)n(-c3ncccc3C(C)C)c3nc(-c4ccccc4F)c(F)cc23)[C@@H](C)C1` [Example 57-9, 6-fluoro-7-(2-fluorophenyl)-4-((2S)-2-methyl-4-(2-propenoyl)-1-piperazinyl)-1-(3-(2-propanyl)-2-pyridinyl)pyrido[2.3-d]pyrimidin-2(1H)-one], the “Coupled exchange IC50 (5 min)” value in assay [1] (5 min compound pre-incubation) is listed as 0.752 | nda μM. In addition, the IC50 in assay [2] (setting [4]) stood at 239 nM.

Turning to `C=CC(=O)N1CCN(c2nc(=O)n(-c3c(C(C)C)ncnc3C(C)C)c3nc(-c4ccc(C#N)cc4F)c(Cl)cc23)[C@@H](C)C1` [Example 87-4, 4-(6-chloro-1-(4,6-di(2-propanyl)-5-pyrimidinyl)-4-((2S)-2-methyl-4-(2-propenoyl)-1-piperazinyl)-2-oxo-1,2-dihydropyrido[2,3-d]pyrimidin-7-yl)-3-fluorobenzonitrile], the “Coupled exchange IC50 (5 min)” value in assay [1] (5 min compound pre-incubation) is 0.254 | nda μM. In assay [2] (setting [4]), the 50% inhibitory concentration (IC50) was found to be 262 nM.

In the case of `C=CC(=O)N1CCN(c2nc(=O)n(-c3c(C)ccnc3C(C)C)c3nc(-c4ccccc4F)c(Cl)cc23)[C@@H](C(F)F)C1` (single isomer, unassigned) [Example 78-3-2], in assay [1] (5 min compound pre-incubation), the “Coupled exchange IC50 (5 min)” value is 0.094 | nda μM. Besides, the IC50 in assay [2] (setting [4]) was 80 nM.
